{
  "source": "paper PMC8548588",
  "about": "“Cesium tolerance is enhanced by a chemical which binds to BETA-GLUCOSIDASE 23 in Arabidopsis thaliana” (Scientific Reports, 2021)",
  "target": "T1, AtβGLU23 (BETA-GLUCOSIDASE 23, PYK10) (Arabidopsis thaliana, UniProt Q9SR37)",
  "T1 construct": "gene BGLU23; native protein from total protein extract of 11-day-old seedlings",
  "T1 sequence (Q9SR37 25-524)": "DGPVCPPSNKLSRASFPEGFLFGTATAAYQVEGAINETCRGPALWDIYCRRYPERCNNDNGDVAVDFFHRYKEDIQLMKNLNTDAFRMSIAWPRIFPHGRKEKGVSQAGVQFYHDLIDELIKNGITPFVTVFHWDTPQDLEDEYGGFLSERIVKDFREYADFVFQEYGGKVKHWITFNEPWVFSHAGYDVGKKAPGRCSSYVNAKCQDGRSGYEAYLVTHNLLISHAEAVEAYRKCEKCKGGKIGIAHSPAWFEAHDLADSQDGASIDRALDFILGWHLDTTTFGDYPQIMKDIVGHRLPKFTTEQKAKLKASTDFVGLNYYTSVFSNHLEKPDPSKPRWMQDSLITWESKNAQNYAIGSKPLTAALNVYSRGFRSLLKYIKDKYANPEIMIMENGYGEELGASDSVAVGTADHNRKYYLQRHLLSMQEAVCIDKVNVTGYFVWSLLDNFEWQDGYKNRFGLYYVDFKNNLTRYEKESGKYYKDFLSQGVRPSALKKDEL",
  "assay": "pull-down from plant extract with photo-cross-linked compound beads, SDS-PAGE, LC-MS/MS",
  "format": "binding",
  "conditions": "compound immobilised on photoaffinity-linker-coated agarose beads; 10 mM CsCl, pH 7.6, 4 °C, 18-24 h; control beads without compound",
  "data": [
    {"molecule": "Cc1cc(C(=O)Cn2cc(C(F)(F)F)ccc2=O)c(C)n1C(C)C", "note": "[CsToAcE1, 1-[2-[2,5-Dimethyl-1-(propan-2-yl)-1H-pyrrol-3-yl]-2-oxoethyl]-5-(trifluoromethyl)-1,2-dihydropyridin-2-one]", "values": [
      {"measurement": "pull-down from plant extract with photo-cross-linked compound beads, SDS-PAGE, L", "value": "CsToAcE1, binds to AtβGLU23"}
    ]}
  ]
}
